Tests used:
[1] = tested on: A549 lung cancer cell line; assay: MTT assay, 48 h continuous drug exposure, A549; assay type: cell-based, human; settings: 48 h exposure
Method: (§1) Some of the C8-linked diaryl ether-PBD hybrids have been tested against eleven human tumour cell lines derived from seven cancer types (lung cancer, colon cancer, cervix, ovarian cancer, oral cancer, prostate cancer and breast cancer) as per Tata protocol as shown in Table 2. For each compound, dose response curves for each cell line were measured at a minimum of five concentrations at 10 fold dilutions. A protocol of 48 h continuous drug exposure was used and a MTT assay was used to estimate cell viability or growth. The percent of cell growth (GI50) compared with the control was calculated. Some of the compounds have been evaluated for their in vitro cytotoxicity in eleven cell lines from seven human cancer types. The results are expressed as GI50 determined relative to that of untreated control cells (Table-2).

[2] = tested on: Colo205 colon cancer cell line; assay: MTT assay, 48 h continuous drug exposure, Colo205; assay type: cell-based, human; settings: 48 h exposure
Method: as §1

[3] = tested on: duplex-form calf thymus DNA (CT-DNA); assay: Thermal denaturation studies with calf thymus DNA (DNA binding affinity); settings: [PBD]:[DNA] molar ratio 1:5, CT-DNA 100 μM, ligand 20 μM, sodium phosphate buffer pH 7.00; for (ΔTm ° C.) after incubation at 37° C. for 0 h: 0 h at 37° C.; for (ΔTm ° C.) after incubation at 37° C. for 18 h: 18 h at 37° C.
Method: DNA Binding Affinity of Diaryl Ether Linked PBD Hybrids: Compounds have been subjected to thermal denaturation studies with duplex-form calf thymus DNA (CT-DNA) using a modification of a reported procedure (Newman, M. S. Carcinog-compr. Surv. 1976, 1, 203; ([…].; Loy, M.; Hoffman, Carcinog-compr. […] The DNA-PBD solutions have been incubated at 37° C. for 0 and 18 h prior to analysis. […] DNA helix→coil transition temperatures (Tm) have been obtained from the maxima in the d(A260)/dT derivative plots. […] The DNA binding activity for these novel C8-linked diaryl ether PBD hybrids has been examined by thermal denaturation studies using calf thymus (CT) DNA. […] The data for the compounds are included in Table 1 for comparison.

[4] = tested on: PC3 prostrate cancer cell line; assay: MTT assay, 48 h continuous drug exposure, PC3; assay type: cell-based, human; settings: prostrate cancer cell line; 48 h exposure; MTT; read-out: GI50 PC3
Method: (§2) For each compound, dose response curves for each cell line were measured at a minimum of five concentrations at 10 fold dilutions. A protocol of 48 h continuous drug exposure was used and a MTT assay was used to estimate cell viability or growth. The percent of cell growth (GI50) compared with the control was calculated.

[5] = tested on: A2780 ovarian cancer cell line; assay: MTT assay, 48 h continuous drug exposure, A2780; assay type: cell-based, human; settings: ovarian cancer cell line; 48 h exposure; MTT; read-out: GI50 A2780
Method: as §2

[6] = tested on: Gurav oral cancer cell line; assay: MTT assay, 48 h continuous drug exposure, Gurav; assay type: cell-based, human; settings: oral cancer cell line; 48 h exposure; MTT; read-out: GI50 Gurav
Method: as §2

[7] = tested on: Hop62 lung cancer cell line; assay: MTT assay, 48 h continuous drug exposure, Hop62; assay type: cell-based, human; settings: lung cancer cell line; 48 h exposure; MTT; read-out: GI50 Hop62
Method: as §2

[8] = tested on: SiHa Cervix cancer cell line; assay: MTT assay, 48 h continuous drug exposure, SiHa; assay type: cell-based, human; settings: Cervix cancer cell line; 48 h exposure; MTT; read-out: GI50 SiHa
Method: as §2

[9] = tested on: ZR-751 breast cancer cell line; assay: MTT assay, 48 h continuous drug exposure, ZR-751; assay type: cell-based, human; settings: breast cancer cell line; 48 h exposure; MTT; read-out: GI50 ZR-751
Method: as §2

[10] = tested on: MCF7 breast cancer cell line; assay: MTT assay, 48 h continuous drug exposure, MCF7; assay type: cell-based, human; settings: 48 h exposure
Method: as §1

[11] = tested on: DWD oral cancer cell line; assay: MTT assay, 48 h continuous drug exposure, DWD; assay type: cell-based, human; settings: oral cancer cell line; 48 h exposure; MTT; read-out: GI50 DWD
Method: as §2

SMILES | GI50 [1] [nM] | GI50 [2] [nM] | (ΔTm ° C.) after incubation at 37° C. for 0 h [3] [°C] | (ΔTm ° C.) after incubation at 37° C. for 18 h [3] [°C] | GI50 [4] [nM] | GI50 [5] [nM] | GI50 [6] [nM] | GI50 [7] [nM] | GI50 [8] [nM] | GI50 [9] [nM] | GI50 [10] [nM] | GI50 [11] [nM]
COc1ccc(Oc2cc(OCCCCCOc3cc4c(cc3OC)C(=O)N3CCC[C@H]3C=N4)ccc2I)cc1OC [17g, 7-Methoxy-(8-5-[4-iodo-3-(3,4-dimethoxyphenoxy)phenoxy]pentyloxy)-(11aS)-1,2,3,11a-tetrahydro-5H-pyrrolo[2,1-c][1,4]benzodiazepin-5-one] | 1650 | 2200 | 4.3 | 5.1 | 170 | 180 | 190 | 2250 | 190 | 1950 | < 100 | 180
COc1ccc(Oc2ccc(C(=O)N3CCN(CCCCCOc4cc5c(cc4OC)C(=O)N4CCC[C@H]4C=N5)CC3)cc2[N+](=O)[O-])cc1OC [32c] | 140 | 160 | 4.8 | 7.3 | 190 | 150 | 120 | 180 | 1850 | 150 | 170 | 140
COc1ccc(Oc2cccc(OCCCCCOc3cc4c(cc3OC)C(=O)N3CCC[C@H]3C=N4)c2[N+](=O)[O-])cc1 [19g, 7-Methoxy-(8-3-[3-(4-methoxyphenoxy)-2-nitrophenoxy]pentyloxy)-(11aS)-1,2,3,11a-tetrahydro-5H-pyrrolo[2,1-c][1,4]benzodiazepin-5-one] | 2220 | 170 | 4.9 | 5.8 | 2840 | 2300 | 2260 | 2500 | 1620 | 2500 | 2000 | 2300
COc1ccc(Oc2ccc(C(=O)N3CCN(CCCCCOc4cc5c(cc4OC)C(=O)N4CCC[C@H]4C=N5)CC3)cc2[N+](=O)[O-])cc1 [31c] | 170 | 170 | 3.9 | 5.6 | 170 | 190 | 160 | 190 | 3880 | 180 | 180 | 180
COc1ccc(Oc2cccc(OCCCCCOc3cc4c(cc3OC)C(=O)N3CCC[C@H]3C=N4)c2[N+](=O)[O-])cc1OC [20g, 7-Methoxy-(8-3-[3-(3,4-dimethoxyphenoxy)-2-nitrophenoxy]pentyloxy)-(11aS)-1,2,3,11a-tetrahydro-5H-pyrrolo[2,1-c][1,4]benzodiazepin-5-one] | 190 | 170 | 4.5 | 6.0 | 2250 | 2000 | 160 | 190 | 2500 | 190 | 2100 | 180
COc1cc2c(cc1OCCCCCN1CCN(C(=O)c3ccc(Oc4cc(OC)c(OC)c(OC)c4)c([N+](=O)[O-])c3)CC1)N=C[C@@H]1CCCN1C2=O [33c] | 2240 | 150 | 4.2 | 6.1 | 2150 | 2300 | 170 | 2670 | 2250 | 2200 | 180 | 2100
COc1cc2c(cc1OCCCCCOc1ccc(N)c(Oc3cc(OC)c(OC)c(OC)c3)c1)N=C[C@@H]1CCCN1C2=O [12g, 7-Methoxy-(8-5-[4-amino-3-(3,4,5-trimethoxyphenoxy)phenoxy]pentyloxy)-(11aS)-1,2,3,11a-tetrahydro-5H-pyrrolo[2,1-c][1,4]benzodiazepin-5-one] | 190 | 160 | 4.2 | 5.1 | 2190 | 170 | 170 | 2860 | 2860 | 2100 | 160 | 170
COc1ccc(Oc2ccc(C(=O)N3CCN(CCCCCOc4cc5c(cc4OC)C(=O)N4CCC[C@H]4C=N5)CC3)cc2N)cc1 [22c] | 180 | 170 | 3.1 | 4.2 | 190 | 190 | 160 | 2300 | 3250 | 190 | 170 | 180
COc1cc2c(cc1OCCCCCOc1ccc(Oc3cc(OC)c(OC)c(OC)c3)c(I)c1)N=C[C@@H]1CCCN1C2=O [18c] | 3040 | 3120 | 4.6 | 5.5 | 2570 | 3100 | 2680 | 2010 | 2220 | 2780 | 3600 | 3000
